Test results from ChEMBL document CHEMBL1201862, “PubChem BioAssay data set” (2004).
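Grown in 96-well plates, cells were treated for 48 hours with each compound at five concentrations. Insufficient inhibition: endpoint recorded as highest concentration tested. GI50 = concentration required for 50% inhibition of growth.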 Activity calls are given as the source filed them. Rule as the data show it: active = GI50 up to about 1.1 µM and inactive = higher.

Key:
Test in all cases: DTP human tumour cell line panel, 48 h
[1] = tested on: SF-295
[2] = tested on: A549
[3] = tested on: K562
[4] = tested on: SF-268
[5] = tested on: DLD-1
[6] = tested on: COLO 205
[7] = tested on: LXFL 529
[8] = tested on: RPMI-8226
[9] = tested on: M14
[10] = tested on: MOLT-4
[11] = tested on: OVCAR-3
[12] = tested on: U-251
[13] = tested on: XF498
[14] = tested on: HCT-116
[15] = tested on: KM-20L2
[16] = tested on: OVCAR-4
[17] = tested on: SR
[18] = tested on: EKVX
[19] = tested on: 786-0
[20] = tested on: TK-10
[21] = tested on: M19-MEL
[22] = tested on: SK-MEL-28
[23] = tested on: OVCAR-8
[24] = tested on: NCI-H460
[25] = tested on: LOX IMVI
[26] = tested on: CCRF-CEM
[27] = tested on: UO-31
[28] = tested on: SNB-75
[29] = tested on: UACC-62
[30] = tested on: CAKI-1
[31] = tested on: SNB-78
[32] = tested on: HCT-15
[33] = tested on: SW-620
[34] = tested on: KM12
[35] = tested on: DMS-114
[36] = tested on: NCI-H23
[37] = tested on: IGROV-1
[38] = tested on: UACC-257
[39] = tested on: Malme-3M
[40] = tested on: HT-29
[41] = tested on: SNB-19
[42] = tested on: OVCAR-5
[43] = tested on: SK-OV-3
[44] = tested on: SK-MEL-2
[45] = tested on: NCI-H522
[46] = tested on: HL-60
[47] = tested on: HOP-92
[48] = tested on: SK-MEL-5
[49] = tested on: SN12C
[50] = tested on: RXF 393
[51] = tested on: A498
[52] = tested on: NCI-H226
[53] = tested on: HCC 2998
[54] = tested on: SF-539
[55] = tested on: DMS-273
[56] = tested on: ACHN
[57] = tested on: HOP-62

In the case of CN1C(=O)NC2(O)c3ccccc3C(=O)C12O (stereo not given), the GI50 [1] is reported as > 100 µM (inactive), the GI50 [2] is reported as > 100 µM (inactive) and the GI50 [3] is reported as > 100 µM (inactive). For the same molecule, the GI50 [4] was > 100 µM (inactive), the GI50 [5] was > 100 µM (inactive) and the GI50 [6] was > 100 µM (inactive). The GI50 [7] was > 100 µM (inactive), the GI50 [8] was > 100 µM (inactive) and the GI50 [9] was > 100 µM (inactive). For the same molecule, the GI50 [10] was > 100 µM (inactive), the GI50 [11] was > 100 µM (inactive) and the GI50 [12] was > 100 µM (inactive). The GI50 [13] was > 100 µM (inactive), the GI50 [14] was > 100 µM (inactive) and the GI50 [15] was > 100 µM (inactive). For the same molecule, the GI50 [16] was > 100 µM (inactive), the GI50 [17] was > 100 µM (inactive) and the GI50 [18] was > 100 µM (inactive). The GI50 [19] was > 100 µM (inactive), the GI50 [20] was > 100 µM (inactive) and the GI50 [21] was > 100 µM (inactive). For the same molecule, the GI50 [22] was > 100 µM (inactive), the GI50 [23] was > 100 µM (inactive) and the GI50 [24] was > 100 µM (inactive). For the same molecule, the GI50 [25] was > 100 µM (inactive), the GI50 [26] was > 100 µM (inactive) and the GI50 [27] was > 100 µM (inactive). The GI50 [28] was > 100 µM (inactive), the GI50 [29] was > 100 µM (inactive) and the GI50 [30] was > 100 µM (inactive). For the same molecule, the GI50 [31] was > 100 µM (inactive), the GI50 [32] was greater than 100 µM and the GI50 [33] was > 100 µM (inactive). The GI50 [34] was > 100 µM (inactive), the GI50 [35] was > 100 µM (inactive) and the GI50 [36] was > 100 µM (inactive). For the same molecule, the GI50 [37] was > 100 µM (inactive), the GI50 [38] was > 100 µM (inactive) and the GI50 [39] was > 100 µM (inactive). The GI50 [40] was > 100 µM (inactive), the GI50 [41] was > 100 µM (inactive) and the GI50 [42] was > 100 µM (inactive). For the same molecule, the GI50 [43] was > 100 µM (inactive), the GI50 [44] was > 100 µM (inactive) and the GI50 [45] was > 100 µM (inactive). For the same molecule, the GI50 [46] was > 100 µM (inactive) and the GI50 [47] was > 100 µM (inactive).
In the case of Cn1nc(-c2ccccc2)c(N=[N+]=[N-])cc1=O, the GI50 [1] is reported as > 100 µM (inactive), the GI50 [2] is reported as > 100 µM (inactive) and the GI50 [3] is reported as > 100 µM (inactive). The GI50 [4] was > 100 µM (inactive), the GI50 [6] was > 100 µM (inactive) and the GI50 [7] was > 100 µM (inactive). For the same molecule, the GI50 [8] was > 100 µM (inactive), the GI50 [9] was > 100 µM (inactive) and the GI50 [10] was > 100 µM (inactive). For the same molecule, the GI50 [11] was > 100 µM (inactive), the GI50 [12] was > 100 µM (inactive) and the GI50 [13] was > 100 µM (inactive). The GI50 [14] was > 100 µM (inactive), the GI50 [15] was > 100 µM (inactive) and the GI50 [48] was > 100 µM (inactive). For the same molecule, the GI50 [49] was > 100 µM (inactive), the GI50 [16] was > 100 µM (inactive) and the GI50 [17] was > 100 µM (inactive). For the same molecule, the GI50 [18] was > 100 µM (inactive), the GI50 [50] was > 100 µM (inactive) and the GI50 [19] was > 100 µM (inactive). For the same molecule, the GI50 [20] was > 100 µM (inactive), the GI50 [21] was > 100 µM (inactive) and the GI50 [22] was > 100 µM (inactive). For the same molecule, the GI50 [23] was > 100 µM (inactive), the GI50 [24] was > 100 µM (inactive) and the GI50 [51] was > 100 µM (inactive). The GI50 [25] was > 100 µM (inactive), the GI50 [26] was > 100 µM (inactive) and the GI50 [27] was > 100 µM (inactive). For the same molecule, the GI50 [29] was > 100 µM (inactive), the GI50 [30] was > 100 µM (inactive) and the GI50 [52] was > 100 µM (inactive). For the same molecule, the GI50 [32] was greater than 100 µM, the GI50 [33] was > 100 µM (inactive) and the GI50 [53] was > 100 µM (inactive). The GI50 [54] was > 100 µM (inactive), the GI50 [34] was > 100 µM (inactive) and the GI50 [35] was > 100 µM (inactive). For the same molecule, the GI50 [36] was > 100 µM (inactive), the GI50 [37] was > 100 µM (inactive) and the GI50 [38] was > 100 µM (inactive). For the same molecule, the GI50 [55] was > 100 µM (inactive), the GI50 [39] was > 100 µM (inactive) and the GI50 [40] was > 100 µM (inactive). For the same molecule, the GI50 [41] was > 100 µM (inactive), the GI50 [42] was > 100 µM (inactive) and the GI50 [56] was > 100 µM (inactive). For the same molecule, the GI50 [43] was 1.59 µM (inactive), the GI50 [45] was > 100 µM (inactive) and the GI50 [46] was > 100 µM (inactive). The GI50 [57] was > 100 µM (inactive).
For CC(=O)NC1=C(NCC(C)(C)C)C(=O)c2ccccc2C1=O, the GI50 [1] was > 100 µM (inactive), the GI50 [2] was > 100 µM (inactive) and the GI50 [3] was 38.2 µM (inactive). For the same molecule, the GI50 [4] was > 100 µM (inactive), the GI50 [5] was 99.5 µM (inactive) and the GI50 [6] was 39.3 µM (inactive). For the same molecule, the GI50 [7] was > 100 µM (inactive), the GI50 [9] was > 100 µM (inactive) and the GI50 [10] was 57.3 µM (inactive). For the same molecule, the GI50 [11] was 55.2 µM (inactive), the GI50 [12] was 65 µM (inactive) and the GI50 [13] was 25.8 µM (inactive). The GI50 [14] was 33.7 µM (inactive), the GI50 [15] was 57.8 µM (inactive) and the GI50 [48] was 40.2 µM (inactive). The GI50 [49] was > 100 µM (inactive), the GI50 [16] was > 100 µM (inactive) and the GI50 [17] was > 100 µM (inactive). For the same molecule, the GI50 [18] was 76.9 µM (inactive), the GI50 [50] was 37 µM (inactive) and the GI50 [19] was > 100 µM (inactive). For the same molecule, the GI50 [20] was > 100 µM (inactive), the GI50 [21] was 21.1 µM (inactive) and the GI50 [22] was > 100 µM (inactive). For the same molecule, the GI50 [23] was 70.6 µM (inactive), the GI50 [24] was 98.4 µM (inactive) and the GI50 [25] was 66.8 µM (inactive). For the same molecule, the GI50 [26] was 38.5 µM (inactive), the GI50 [27] was 46.3 µM (inactive) and the GI50 [28] was 96.6 µM (inactive). The GI50 [29] was 39 µM (inactive), the GI50 [52] was > 100 µM (inactive) and the GI50 [31] was 86.1 µM (inactive). The GI50 [32] was 55.3 µM, the GI50 [33] was 66.5 µM (inactive) and the GI50 [53] was > 100 µM (inactive). For the same molecule, the GI50 [54] was 32.9 µM (inactive), the GI50 [34] was 82.6 µM (inactive) and the GI50 [36] was 56.5 µM (inactive). For the same molecule, the GI50 [37] was > 100 µM (inactive), the GI50 [38] was 50.2 µM (inactive) and the GI50 [55] was > 100 µM (inactive). For the same molecule, the GI50 [39] was 34.3 µM (inactive), the GI50 [40] was > 100 µM (inactive) and the GI50 [41] was > 100 µM (inactive). The GI50 [56] was 26.9 µM (inactive), the GI50 [43] was > 100 µM (inactive) and the GI50 [44] was 69 µM (inactive). The GI50 [45] was 18.9 µM (inactive), the GI50 [46] was 32.1 µM (inactive) and the GI50 [57] was > 100 µM (inactive).
